Measured values published in paper PMC9945863, “Pyridine based dual binding site aromatase (CYP19A1) inhibitors” (RSC Medicinal Chemistry, 2023).
Like-named read-outs stand apart in the source and are kept apart here. Each block holds one compound with its values, some of them ahead of it.

Key:
Aromatase (CYP19A1) = target: T1, Aromatase (CYP19A1) (Homo sapiens, UniProt P11511); experiment: Aromatase activity, modified tritiated water assay in JEG-3 cells; format: cell-based
T1 construct: placental choriocarcinoma JEG-3 cells, known to have high aromatase activity; host or cells: JEG-3
T1 sequence (P11511 1-503): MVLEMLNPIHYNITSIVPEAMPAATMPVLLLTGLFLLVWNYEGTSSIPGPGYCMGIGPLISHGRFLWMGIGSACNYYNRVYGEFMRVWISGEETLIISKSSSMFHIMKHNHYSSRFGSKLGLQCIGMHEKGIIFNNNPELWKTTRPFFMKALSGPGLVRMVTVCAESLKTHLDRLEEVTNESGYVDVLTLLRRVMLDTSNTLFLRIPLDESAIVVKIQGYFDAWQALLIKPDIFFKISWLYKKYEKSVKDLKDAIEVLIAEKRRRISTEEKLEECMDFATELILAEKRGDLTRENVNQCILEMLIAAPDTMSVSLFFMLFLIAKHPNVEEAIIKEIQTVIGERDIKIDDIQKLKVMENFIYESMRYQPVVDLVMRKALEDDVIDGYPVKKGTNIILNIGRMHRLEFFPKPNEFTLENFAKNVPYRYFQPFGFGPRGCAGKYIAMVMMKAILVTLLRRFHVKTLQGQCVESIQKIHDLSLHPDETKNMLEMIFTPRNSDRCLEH
Protocol: Briefly, placental choriocarcinoma JEG-3 cells, known to have high aromatase activity, were grown to approximately 80% confluence in six-well culture plates. Once established, cells were treated with androst-4-ene-3,17-dione[1β-^3H] as aromatase substrate. Aromatase activity was measured in the absence and presence of inhibitors (Fig. 3).
Aromatase activity results were determined as a concentration of product formed per mg of protein per hour.
Aromatase activity was assayed using a modified tritiated water assay as previously reported.[12] JEG-3 cells were grown in 1 mL EMEM to approximately 80% confluence in six-well cell culture plates. Androst-4-ene-3,17-dione[1β-^3H] was dissolved in serum-free cell culture medium and added into each well. Aromatase activity was measured in the absence and presence of inhibitor (0.001–10 nM). After a 1 h incubation at 37 °C followed by a 5 min incubation on ice, 500 μL of culture medium was taken from each well. Medium was vortexed with 2% dextran-treated charcoal (Sigma-Aldrich) in PBS and centrifuged at 4000 rpm. The supernatant containing the product, [^3H] H2O, was quantified by scintillation counting. Cell protein concentrations were determined using Pierce BCA assay kit (Thermo Fisher Scientific). Aromatase activity results were determined as a concentration of product formed per mg of protein per hour (pmol mg^−1 h^−1).

CYP1A2 [1] = target: T2, CYP1A2 (Homo sapiens, UniProt P05177); experiment: CYP panel inhibition, human liver microsomal assay (Cyprotex); format: in vitro ADME; conditions: human liver microsomes, isoform specific probe substrate
T2 construct: using a human liver microsomal assay with a CYP isoform specific probe substrate; tissue Cyprotex Discovery Limited; host or cells: human liver microsomes
T2 sequence (P05177 1-516): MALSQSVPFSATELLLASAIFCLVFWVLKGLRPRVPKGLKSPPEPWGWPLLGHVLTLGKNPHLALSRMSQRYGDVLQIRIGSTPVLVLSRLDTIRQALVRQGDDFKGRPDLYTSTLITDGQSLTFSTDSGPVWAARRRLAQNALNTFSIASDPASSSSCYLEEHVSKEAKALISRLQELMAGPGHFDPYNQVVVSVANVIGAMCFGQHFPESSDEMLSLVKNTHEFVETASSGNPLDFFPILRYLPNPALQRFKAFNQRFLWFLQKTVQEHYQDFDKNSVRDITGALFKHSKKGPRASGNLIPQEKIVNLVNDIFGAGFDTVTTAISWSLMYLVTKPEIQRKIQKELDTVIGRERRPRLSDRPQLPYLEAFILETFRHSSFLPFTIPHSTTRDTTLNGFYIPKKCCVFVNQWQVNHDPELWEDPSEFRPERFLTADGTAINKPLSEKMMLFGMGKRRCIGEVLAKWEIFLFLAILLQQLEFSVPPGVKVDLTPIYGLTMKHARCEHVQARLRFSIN

[2] = target: T3, CYP1A2 (relative to CYP19A1) (Homo sapiens, UniProt P05177); experiment: as above; format: in vitro ADME; conditions: human, human liver microsomes; ratio of CYP IC50 to CYP19A1 IC50; read-out: Selectivity CYP19A1 compared with CYP1A2
T3 construct: using a human liver microsomal assay with a CYP isoform specific probe substrate; tissue Cyprotex Discovery Limited; host or cells: human liver microsomes
T3 sequence (P05177 1-516): T2 sequence (P05177 1-516)

CYP2C9 [3] = target: T4, CYP2C9 (Homo sapiens, UniProt P11712); experiment: as above; format: in vitro ADME; conditions: human liver microsomes, isoform specific probe substrate
T4 construct: tissue Cyprotex Discovery Limited; host or cells: human liver microsomes
T4 sequence (P11712 whole entry, canonical isoform): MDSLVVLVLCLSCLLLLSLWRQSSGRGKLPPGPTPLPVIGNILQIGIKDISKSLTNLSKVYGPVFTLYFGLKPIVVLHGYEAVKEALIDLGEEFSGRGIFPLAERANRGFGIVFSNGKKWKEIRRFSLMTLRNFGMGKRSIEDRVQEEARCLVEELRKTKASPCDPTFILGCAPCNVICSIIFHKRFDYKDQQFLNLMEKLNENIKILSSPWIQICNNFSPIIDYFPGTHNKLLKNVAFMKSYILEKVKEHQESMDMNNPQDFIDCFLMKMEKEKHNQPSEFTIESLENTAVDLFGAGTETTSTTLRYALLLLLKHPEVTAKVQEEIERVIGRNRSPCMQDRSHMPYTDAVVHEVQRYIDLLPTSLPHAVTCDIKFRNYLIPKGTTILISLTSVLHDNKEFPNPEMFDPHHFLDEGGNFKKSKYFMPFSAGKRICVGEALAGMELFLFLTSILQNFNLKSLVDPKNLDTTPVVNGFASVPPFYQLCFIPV

[4] = target: T5, CYP2C9 (relative to CYP19A1) (Homo sapiens, UniProt P11712); experiment: as above; format: in vitro ADME; conditions: human, human liver microsomes; ratio of CYP IC50 to CYP19A1 IC50; read-out: Selectivity CYP19A1 compared with CYP2C9
T5 construct: using a human liver microsomal assay with a CYP isoform specific probe substrate; tissue Cyprotex Discovery Limited; host or cells: human liver microsomes
T5 sequence (P11712 whole entry, canonical isoform): as above

CYP2C19 [5] = target: T6, CYP2C19 (Homo sapiens, UniProt P33261); experiment: as above; format: in vitro ADME; conditions: human liver microsomes, isoform specific probe substrate
T6 construct: using a human liver microsomal assay with a CYP isoform specific probe substrate; tissue Cyprotex Discovery Limited; host or cells: human liver microsomes
T6 sequence (P33261 whole entry, canonical isoform): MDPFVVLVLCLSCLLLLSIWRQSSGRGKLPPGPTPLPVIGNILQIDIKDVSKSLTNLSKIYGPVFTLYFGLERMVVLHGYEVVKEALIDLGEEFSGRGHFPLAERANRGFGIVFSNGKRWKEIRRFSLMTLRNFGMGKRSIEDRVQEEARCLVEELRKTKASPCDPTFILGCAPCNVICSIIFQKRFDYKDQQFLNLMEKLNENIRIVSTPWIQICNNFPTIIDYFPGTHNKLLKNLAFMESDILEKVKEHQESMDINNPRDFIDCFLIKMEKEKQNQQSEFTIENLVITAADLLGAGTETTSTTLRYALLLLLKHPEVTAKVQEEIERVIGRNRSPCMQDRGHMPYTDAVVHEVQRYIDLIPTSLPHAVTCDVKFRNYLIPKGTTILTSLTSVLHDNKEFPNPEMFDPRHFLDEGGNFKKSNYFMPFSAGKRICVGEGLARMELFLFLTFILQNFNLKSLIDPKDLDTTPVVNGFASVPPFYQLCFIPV

[6] = target: T7, CYP2C19 (relative to CYP19A1) (Homo sapiens, UniProt P33261); experiment: as above; format: in vitro ADME; conditions: human, human liver microsomes; ratio of CYP IC50 to CYP19A1 IC50; read-out: Selectivity CYP19A1 compared with CYP2C19
T7 construct: using a human liver microsomal assay with a CYP isoform specific probe substrate; tissue Cyprotex Discovery Limited; host or cells: human liver microsomes
T7 sequence (P33261 whole entry, canonical isoform): as above

CYP3A4 [7] = target: T8, CYP3A4 (Homo sapiens, UniProt P08684); experiment: as above; format: in vitro ADME; conditions: human liver microsomes, isoform specific probe substrate
T8 construct: using a human liver microsomal assay with a CYP isoform specific probe substrate; tissue Cyprotex Discovery Limited; host or cells: human liver microsomes
T8 sequence (P08684 whole entry, canonical isoform): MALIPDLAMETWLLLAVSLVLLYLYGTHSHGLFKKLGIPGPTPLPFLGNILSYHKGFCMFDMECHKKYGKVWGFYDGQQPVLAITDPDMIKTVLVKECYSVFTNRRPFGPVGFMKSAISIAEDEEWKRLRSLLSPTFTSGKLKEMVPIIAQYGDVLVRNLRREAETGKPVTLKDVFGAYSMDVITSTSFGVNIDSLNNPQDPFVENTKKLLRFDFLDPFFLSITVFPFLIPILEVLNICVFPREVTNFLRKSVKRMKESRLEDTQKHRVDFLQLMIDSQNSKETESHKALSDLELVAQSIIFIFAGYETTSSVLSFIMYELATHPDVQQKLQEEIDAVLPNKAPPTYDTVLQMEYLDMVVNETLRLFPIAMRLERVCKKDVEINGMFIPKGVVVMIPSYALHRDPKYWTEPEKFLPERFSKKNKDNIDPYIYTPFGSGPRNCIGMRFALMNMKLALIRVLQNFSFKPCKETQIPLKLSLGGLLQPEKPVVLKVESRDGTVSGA

[8] = target: T9, CYP3A4 (relative to CYP19A1) (Homo sapiens, UniProt P08684); experiment: as above; format: in vitro ADME; conditions: human, human liver microsomes; ratio of CYP IC50 to CYP19A1 IC50; read-out: Selectivity CYP19A1 compared with CYP3A4
T9 construct: using a human liver microsomal assay with a CYP isoform specific probe substrate; tissue Cyprotex Discovery Limited; host or cells: human liver microsomes
T9 sequence (P08684 whole entry, canonical isoform): as above

[9] = target: CYP2D6 (relative to CYP19A1) (Homo sapiens, UniProt P10635); experiment: in vitro; conditions: Selectivity CYP19A1 compared with CYP2D6, ratio of CYP IC50 to CYP19A1 IC50
CYP2D6 (relative to CYP19A1), sequence (P10635 whole entry, canonical isoform): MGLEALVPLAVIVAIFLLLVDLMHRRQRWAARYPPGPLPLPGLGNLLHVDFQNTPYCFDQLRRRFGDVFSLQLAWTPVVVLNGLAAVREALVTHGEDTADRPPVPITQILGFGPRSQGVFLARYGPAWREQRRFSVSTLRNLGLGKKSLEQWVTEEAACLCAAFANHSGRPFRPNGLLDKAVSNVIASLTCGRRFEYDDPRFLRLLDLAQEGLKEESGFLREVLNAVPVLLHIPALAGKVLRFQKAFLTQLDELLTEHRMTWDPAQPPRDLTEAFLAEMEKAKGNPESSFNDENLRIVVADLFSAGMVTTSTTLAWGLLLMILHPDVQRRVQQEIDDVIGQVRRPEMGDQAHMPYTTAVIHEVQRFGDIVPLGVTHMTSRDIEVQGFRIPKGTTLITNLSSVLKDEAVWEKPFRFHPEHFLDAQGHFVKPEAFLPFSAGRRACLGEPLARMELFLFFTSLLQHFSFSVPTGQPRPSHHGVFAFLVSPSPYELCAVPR

CYP2D6 = CYP2D6 (Homo sapiens, UniProt P10635); experiment: CYP panel inhibition, human liver microsomal assay (Cyprotex); conditions: read-out: CYP2D6 IC50; human liver microsomes, isoform specific probe substrate
CYP2D6, sequence (P10635 whole entry, canonical isoform): as above

CYP2A6 = test system: CYP2A6; design: method as in PMID 19198839, PMID 28977209; conditions: cited from earlier work
CYP2C19 [10] = test system: CYP2C19; design: method as in PMID 19198839, PMID 28977209; conditions: cited from earlier work
CYP1A2 [11] = conditions: cited from earlier work
CYP2C9 [12] = conditions: cited from earlier work
CYP3A4 [13] = conditions: cited from earlier work
[14] = heterocyclic nitrogen basicity; cited from earlier work
[15] = JEG-3 cells, 0.001–10 nM inhibitor, 1 h incubation, triplicates, read-out: CYP19A1 IC50

IC50 (Aromatase (CYP19A1); [15]): 0.0004 µM
SMILES: COc1ccc2cc(C(O)(c3ccc(Br)cc3)c3cccnc3)oc2c1 (stereo not drawn) [Compound 4c, (4-Bromophenyl)(6-methoxybenzofuran-2-yl)(pyridin-3-yl)methanol]

IC50 (Aromatase (CYP19A1); [15]): 0.00105 µM
SMILES: CC#CCOc1ccc2cc(C(O)(c3ccc(Cl)cc3)c3cccnc3)oc2c1 (stereo not drawn) [Compound 10b, (6-(But-2-yn-1-yloxy)benzofuran-2-yl)(4-chlorophenyl)(pyridin-3-yl)methanol]

IC50 (Aromatase (CYP19A1); [15]): ~0.01 µM
SMILES: CCC#CCOc1ccc2cc(C(O)(c3ccc(F)cc3)c3cccnc3)oc2c1 (stereo not drawn) [Compound 11a, (4-Fluorophenyl)(6-(pent-2-yn-1-yloxy)benzofuran-2-yl)(pyridin-3-yl)methanol]

IC50 (Aromatase (CYP19A1); [15]): 0.00092 µM
SMILES: CCC#CCOc1ccc2cc(C(O)(c3ccc(Cl)cc3)c3cccnc3)oc2c1 (stereo not drawn) [Compound 11b, (4-Chlorophenyl)(6-(pent-2-yn-1-yloxy)benzofuran-2-yl)(pyridin-3-yl)methanol]

IC50 (Aromatase (CYP19A1); [15]): 0.0049 µM
SMILES: CCC#CCOc1ccc2cc(C(O)(c3ccc(Br)cc3)c3cccnc3)oc2c1 (stereo not drawn) [Compound 11c, (4-Bromophenyl)(6-(pent-2-yn-1-yloxy)benzofuran-2-yl)(pyridin-3-yl)methanol]

Second part, the compound before the results:

SMILES: COc1ccc2cc(C(O)(c3cccnc3)c3ccc(Cl)cc3Cl)oc2c1 (stereo not drawn) [Compound 4d, (2′,4′-Dichlorophenyl)(6-methoxybenzofuran-2-yl)(pyridin-3-yl)methanol]
IC50 (Aromatase (CYP19A1); [15]): 0.0019 µM

SMILES: CC#CCOc1ccc2cc(C(O)(c3ccc(F)cc3)c3cccnc3)oc2c1 (stereo not drawn) [Compound 10a, (6-(But-2-yn-1-yloxy)benzofuran-2-yl)(4-fluorophenyl)(pyridin-3-yl)methanol]
IC50 (Aromatase (CYP19A1); [15]): ~0.01 µM

SMILES: CC#CCOc1ccc2cc(C(O)(c3ccc(Br)cc3)c3cccnc3)oc2c1 (stereo not drawn) [Compound 10c, (4-Bromophenyl)(6-(but-2-yn-1-yloxy)benzofuran-2-yl)(pyridin-3-yl)methanol]
IC50 (Aromatase (CYP19A1); CYP19A1 value restated in μM in CYP profile table, read-out: IC50, CYP isoform 19A1): 0.00083 µM
IC50 (Aromatase (CYP19A1); [15]): 0.00083 µM
IC50 (CYP1A2 [1]): > 25000 nM
selectivity ratio [2]: > 30000
IC50 (CYP2C9 [3]): 4900 ± 940 nM
selectivity ratio [4]: 5900
IC50 (CYP2C19 [5]): 740 ± 160 nM
selectivity ratio [6]: 892
IC50 (CYP3A4 [7]): 3380 ± 510 nM
selectivity ratio [8]: 4070
selectivity ratio [9]: > 30000
IC50 (CYP2D6): > 25000 nM

SMILES: CC#CCOc1ccc2cc(C(O)(c3cccnc3)c3ccc(Cl)cc3Cl)oc2c1 (stereo not drawn) [Compound 10d, (6-(But-2-yn-1-yloxy)benzofuran-2-yl)(2,4-dichlorophenyl)(pyridin-3-yl)methanol]
IC50 (Aromatase (CYP19A1); [15]): > 0.01 µM

SMILES: CCC#CCOc1ccc2cc(C(O)(c3cccnc3)c3ccc(Cl)cc3Cl)oc2c1 (stereo not drawn) [Compound 11d, (2,4-Dichlorophenyl)(6-(pent-2-yn-1-yloxy)benzofuran-2-yl)(pyridin-3-yl)methanol]
IC50 (Aromatase (CYP19A1); [15]): > 0.01 µM

SMILES: N#Cc1ccc(C(c2ccc(C#N)cc2)n2cncn2)cc1 [Letrozole]
inhibition of CYP2A6 (CYP2A6): significant competitive inhibition
inhibition of CYP2C19 (CYP2C19 [10]): modest inhibition

SMILES: CC(C)(C#N)c1cc(Cn2cncn2)cc(C(C)(C)C#N)c1 [anastrozole]
inhibition of CYP1A2 (CYP1A2 [11]): some inhibition
inhibition of CYP2C9 (CYP2C9 [12]): some inhibition
inhibition of CYP3A4 (CYP3A4 [13]): some inhibition

SMILES: c1nnn[nH]1 [tetrazole]
pKa [14]: 4.8
